For the assay, the system named is c-KIT 1 (DNA, G4) AGGGAGGGCGCTGGGAGGAGGG
Kind of assay: CD melting at 265 nm. Conditions: 10 mM KCl, 90 mM LiCl; 10 mM Tris-HCl, pH 7.2; 2 µM DNA, 3 eq ligand; 1 °C/min.

As a reminder, the ΔTm is the shift of the melting midpoint relative to a reference.

Regarding `CC[n+]1c(/C=C/c2ccc3c(c2)c2ccccc2n3CCCCn2ccnc2)sc2ccccc21`, the shift in melting temperature (ΔTm) stood at 8.4 °C.

With `CC[n+]1c(/C=C/c2ccc3c(c2)c2ccccc2n3CCCCn2cncn2)sc2ccccc21`, the ΔTm worked out at 5.4 °C.

For the compound `CCn1c2ccccc2c2cc(/C=C/c3sc4ccccc4[n+]3CC)ccc21`, the ΔTm stood at 5.9 °C.

The record behind these values is publication PMC6099540 (2018).
